The text below walks through data of patent US9006455B2 (Bristol-Myers Squibb Company, priority 2009, dated 2015).

The test system of this experiment is HCV 1b genotype. Briefly: HCV Replicon assay (HCV 1b genotype). It is filed as cell-based. As to conditions: Hepatitis C virus, HCV 1b genotype replicon. As for the experimental part:
An HCV Replicon assay was utilized in the present disclosure, and was prepared, conducted and validated as described in commonly owned PCT/US2006/022197 and in O'Boyle et al., Antimicrob. Agents Chemother., 49(4):1346-1353 (April 2005). Assay methods incorporating luciferase reporters have also been used as described (Apath.com).
HCV-neo replicon cells and replicon cells containing resistance substitutions in the NS5A region were used to test the currently described family of compounds. The compounds were determined to have differing degrees of reduced inhibitory activity on cells containing mutations vs. the corresponding inhibitory potency against wild-type cells. Thus, the compounds of the present disclosure can be effective in inhibiting the function of the HCV NS5A protein and are understood to be as effective in combinations as previously described in application PCT/US2006/022197 and commonly owned WO 04/014852. It should be understood that the compounds of the present disclosure can inhibit multiple genotypes of HCV. […] In one embodiment, compounds of the present disclosure are inhibitory versus 1a, 1b, 2a, 2b, 3a, 4a, and 5a genotypes.

The mark [1] stands for this setting: read-out: Range (EC50 values against HCV 1b).

Where two headings read alike, the source gives them in different places.

Consider `CC(=O)N1[C@@H](C)CC[C@H]1c1ncc(-c2ccc(-c3ccc4cc(-c5cnc([C@@H]6CC[C@H](C)N6C(C)=O)[nH]5)ccc4c3)cc2)[nH]1` [Example 109, 2-((2S,5S)-1-Acetyl-5-methyl-2-pyrrolidinyl)-4-(4-(6-(2-((2S,5S)-1-acetyl-5-methyl-2-pyrrolidinyl)-1H-imidazol-4-yl)-2-naphthyl)phenyl)-1H-imidazole], for which the EC50 reads like this: (read-out: EC50) 180 nM; under setting [1], 1.01 to 1000 nM.
`COC(=O)N[C@H](C(=O)N[C@@H](C)c1ncc(-c2ccc(-c3ccc4cc(-c5cnc([C@H](C)NC(=O)[C@@H](NC(=O)OC)C(C)C)[nH]5)ccc4c3)cc2)[nH]1)C(C)C` [Example 124, Methyl((1S)-1-(((1S)-1-(4-(4-(6-(2-((1S)-1-(((2S)-2-((methoxycarbonyl)amino)-3-methylbutanoyl)amino)ethyl)-1H-imidazol-4-yl)-2-naphthyl)phenyl)-1H-imidazol-2-yl)ethyl)carbamoyl)-2-methylpropyl)carbamate]: the EC50 under setting [1] was in the range of 0.0101 to 1 nM.
For `COC(=O)N[C@H](C(=O)N1[C@@H]2C[C@@H]2C[C@H]1c1ncc(C#Cc2ccc3cc(-c4cnc([C@@H]5C[C@H]6C[C@H]6N5C(=O)[C@@H](NC(=O)OC)C5CCOCC5)[nH]4)ccc3c2)[nH]1)C1CCOCC1` [Example 82, Methyl((1S)-2-((1R,3S,5R)-3-(4-(6-((2-((1R,3S,5R)-2-((2S)-2-((methoxycarbonyl)amino)-2-(tetrahydro-2H-pyran-4-yl)acetyl)-2-azabicyclo[3.1.0]hex-3-yl)-1H-imidazol-4-yl)ethynyl)-2-naphthyl)-1H-imidazol-2-yl)-2-azabicyclo[3.1.0]hex-2-yl)-2-oxo-1-(tetrahydro-2H-pyran-4-yl)ethyl)carbamate], the EC50 was 0.0422 nM (read-out: EC50) and 0.0101 to 1 nM under setting [1].
For the compound `COC(=O)N[C@H](C(=O)N1CCC[C@H]1c1nc2nc(-c3ccc4cc(-c5cnc6[nH]c([C@@H]7CCCN7C(=O)[C@@H](NC(=O)OC)C(C)C)nc6n5)ccc4c3)cnc2[nH]1)C(C)C` [Example 24, Methyl((1S)-1-(((2S)-2-(5-(6-(2-((2S)-1-((2S)-2-((methoxycarbonyl)amino)-3-methylbutanoyl)-2-pyrrolidinyl)-1H-imidazo[4,5-b]pyrazin-5-yl)-2-naphthyl)-1H-imidazo[4,5-b]pyrazin-2-yl)-1-pyrrolidinyl)carbonyl)-2-methylpropyl)carbamate], the 50% effective concentration (EC50) under setting [1] lay in the range of 0.0101 to 1 nM.
Same read-out and setting: in the case of `COC(=O)N[C@@H](C)C(=O)N1CCC[C@H]1c1nc2cc(-c3ccc4ccc(-c5ccc6nc([C@@H]7CCCN7C(=O)[C@H](C)NC(=O)OC)[nH]c6c5)cc4c3)ccc2[nH]1` [Example 13, Methyl((1S)-2-((2S)-2-(5-(7-(2-((2S)-1-(N-(methoxycarbonyl)-L-alanyl)-2-pyrrolidinyl)-1H-benzimidazol-5-yl)-2-naphthyl)-1H-benzimidazol-2-yl)-1-pyrrolidinyl)-1-methyl-2-oxoethyl)carbamate] it was 1.01 to 1000 nM.
On the same count and under the same terms, in the case of `COC(=O)N[C@H](C(=O)N1CCC[C@H]1c1ncc(-c2ccc3cc(-c4cnc([C@@H]5CCCN5C(=O)[C@@H](NC(=O)OC)C(C)C)[nH]4)ccc3c2)[nH]1)C(C)C` [Example 32] it was 0.0101 to 1 nM.
Same read-out and setting: in the case of `COC(=O)N[C@@H](C)C(=O)N1CCC[C@H]1c1nc2ccc(-c3ccc4cc(-c5ccc6nc([C@@H]7CCCN7C(=O)[C@H](C)NC(=O)OC)[nH]c6c5)ccc4c3)cc2[nH]1` [Example 5, Methyl((1S)-2-((2S)-2-(5-(6-(2-((2S)-1-(N-(methoxycarbonyl)-L-alanyl)-2-pyrrolidinyl)-1H-benzimidazol-5-yl)-2-naphthyl)-1H-benzimidazol-2-yl)-1-pyrrolidinyl)-1-methyl-2-oxoethyl)carbamate] it was 0.0101 to 1 nM.

What is called EC50 is the concentration needed to bring the measured effect to its halfway point.
